# Measured values as given in patent publication US20250222146A1, “Radiopharmaceuticals Targeting Somatostatin Receptor 2 and Uses Thereof” (RayzeBio, Inc., priority 2023, published 2025).
# Numbered stars: 1 amine (or outer) side, 2 acyl side, 3 side chain; on linkers, the order of the positions; unused ones are H or OH. Square brackets hold non-standard residues; d marks the D form. Peptide text beside a SMILES is read from it. * marks the point of attachment. DOTA(Lu)NH(CH2)6NHCOCH2 = O=C(CN1CCN2CCN3CCN(CC1)CC(=O)[O][Lu]([O]C(=O)C2)[O]C(=O)C3)NCCCCCCNC(=O)C*; X3 = O=C(O)CN1CCN(CC(=O)O)CCN(CC(=O)NCCCCCCNC(=O)C*)CCN(CC(=O)O)CC1; dTrp(βS-Me) = C[C@@H](c1c[nH]c2ccccc12)[C@@H](N)C(=O)O; Phe(3-CONH2) = NC(=O)c1cccc(C[C@H](N)C(=O)O)c1; dTrp(6-F) = N[C@H](Cc1c[nH]c2cc(F)ccc12)C(=O)O; Phe(2-CONH2) = NC(=O)c1ccccc1C[C@H](N)C(=O)O; Phe(3R-Me) = C[C@H](c1ccccc1)[C@H](N)C(=O)O; Tyr(3-F) = N[C@@H](Cc1ccc(O)c(F)c1)C(=O)O; X21 = CC(c1ccccc1)[C@H](N[*:1])C(=O)[*:2]; 3Pal = N[C@@H](Cc1cccnc1)C(=O)O; 4Pal = N[C@@H](Cc1ccncc1)C(=O)O; NMehCys = CN[C@@H](CCS)C(=O)O
# Biological target: SSTR2 (Homo sapiens, UniProt P30874)
# Experiment: SSTR binding affinity by radioligand binding competition assay ([125I]-Tyr11-Somatostatin, membrane extracts)
# Details: SSTR2 Ki, radioligand competition, [125I]-Tyr11-Somatostatin 0.1 nM, membrane extracts; Ki from IC50 by Cheng Prusoff
# Procedure: Macrocyclic peptides in this invention were tested for binding to SSTR protein by a radioligand binding competition assay. For radioligand binding assay, competition binding is performed in duplicate in the wells of a 96 well plate containing binding buffer (HEPES 25 mM pH 7.4, MgCl2 5 mM, CaCl2 1 mM, BSA 0.5%, Saponine 10 μg/ml)), membrane extracts (0.6 μg protein/well), radiotracer ([125I]-Tyr11-Somatostatin, Perkin Elmer NEX389) and test compound. Nonspecific binding is determined by co-incubation with 200-fold excess of cold competitor (SST28). The samples are incubated in a final volume of 0.1 ml for 60 min at room temperature and then filtered over UniFilter-96 GF/C (Revvity 6055690) filter plates. Filters are washed six times with 0.5 ml of ice-cold washing buffer (HEPES 25 mM pH 7.4, MgCl2 5 mM, CaCl2 1 mM) and 50 μl of Microscint 20 (Packard) are added in each well. The plates are incubated 15 min on an orbital shaker and then counted with a TopCount™ for 1 min/well. For IC50 to Ki determination, the Cheng Prusoff equation is used: Ki=IC50/(1+ [tracer]/Kd). [Tracer] is 0.1 nM as mentioned above.
# SSTR2, sequence (P30874 whole entry): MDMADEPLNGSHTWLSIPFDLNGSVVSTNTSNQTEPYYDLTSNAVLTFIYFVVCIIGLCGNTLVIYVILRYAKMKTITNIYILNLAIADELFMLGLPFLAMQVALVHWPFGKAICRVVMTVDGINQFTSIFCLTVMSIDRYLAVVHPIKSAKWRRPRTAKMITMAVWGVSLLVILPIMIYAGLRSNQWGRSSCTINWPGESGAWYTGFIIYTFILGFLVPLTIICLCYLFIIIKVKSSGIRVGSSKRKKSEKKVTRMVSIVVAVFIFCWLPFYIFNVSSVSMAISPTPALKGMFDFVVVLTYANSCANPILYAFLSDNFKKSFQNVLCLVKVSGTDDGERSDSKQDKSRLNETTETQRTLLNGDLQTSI
row,SMILES,Ki [nM]
1,C[C@@H](O)[C@@H]1NC(=O)[C@H](CCCCN)NC(=O)[C@@H](Cc2c[nH]c3ccccc23)NC(=O)[C@H](Cc2ccc(O)cc2)NC(=O)[C@H](CCCCNC(=O)CN2CCN3CCN4CCN(CC2)CC(=O)[O][Lu]([O]C(=O)C3)[O]C(=O)C4)N(C)C(=O)[C@H](Cc2ccccc2)NC1=O [RB-0003292],< 1
2,C[C@@H](O)[C@@H]1NC(=O)[C@H](CCCCN)NC(=O)[C@@H](Cc2c[nH]c3ccccc23)NC(=O)[C@H](Cc2ccc(O)cc2)NC(=O)[C@H](CCCCNC(=O)COCCOCCNC(=O)CN2CCN3CCN4CCN(CC2)CC(=O)[O][Lu]([O]C(=O)C3)[O]C(=O)C4)N(C)C(=O)[C@H](Cc2ccccc2)NC1=O [RB-0003294],1 to 3.33
3,C[C@@H](O)[C@@H]1NC(=O)[C@H](CCCCN)NC(=O)[C@@H](Cc2c[nH]c3ccccc23)NC(=O)[C@H](Cc2ccc(O)cc2)NC(=O)[C@H](CCCCNC(=O)CCCCCCCNC(=O)CN2CCN3CCN4CCN(CC2)CC(=O)[O][Lu]([O]C(=O)C3)[O]C(=O)C4)N(C)C(=O)[C@H](Cc2ccccc2)NC1=O [RB-0003296],1 to 3.33
4,C[C@@H](O)[C@@H]1NC(=O)[C@H](CCCCN)NC(=O)[C@@H](Cc2c[nH]c3ccccc23)NC(=O)[C@H](Cc2ccc(O)cc2)NC(=O)[C@H](CCCCNC(=O)CCCCC[C@H](NC(=O)CN2CCN3CCN4CCN(CC2)CC(=O)[O][Lu]([O]C(=O)C3)[O]C(=O)C4)C(=O)O)N(C)C(=O)[C@H](Cc2ccccc2)NC1=O [RB-0003298],3.33 to 10

# Same assay, conditions: radioligand competition, [125I]-Tyr11-Somatostatin 0.1 nM, membrane extracts; Ki from IC50 by Cheng Prusoff; read-out: SSTR2 Ki
row,SMILES,Ki [nM]
1,C[C@@H](O)[C@@H]1NC(=O)[C@H](CCCCN)NC(=O)[C@@H](Cc2c[nH]c3ccccc23)NC(=O)[C@H](Cc2ccc(O)c(F)c2)NC(=O)[C@H](CCSCC(=O)NCCCCCCNC(=O)CN2CCN3CCN4CCN(CC2)CC(=O)[O][Lu]([O]C(=O)C3)[O]C(=O)C4)N(C)C(=O)[C@H](Cc2ccccc2)NC1=O [RB-0003280] (cyclo(F[NMehCys](DOTA(Lu)NH(CH2)6NHCOCH2)[Tyr(3-F)][dW]KT)),< 1
2,CC(c1ccccc1)[C@@H]1NC(=O)[C@H]([C@@H](C)O)NC(=O)[C@H](CCCCN)NC(=O)[C@@H](Cc2c[nH]c3ccccc23)NC(=O)[C@H](Cc2ccc(O)cc2)NC(=O)[C@H](CCSCC(=O)NCCCCCCNC(=O)CN2CCN3CCN4CCN(CC2)CC(=O)[O][Lu]([O]C(=O)C3)[O]C(=O)C4)N(C)C1=O (stereo partly drawn) [RB-0003281] (cyclo(KT[X21][NMehCys](DOTA(Lu)NH(CH2)6NHCOCH2)Y[dW])),3.33 to 10
3,C[C@@H](O)[C@@H]1NC(=O)[C@H](CCCCN)NC(=O)[C@@H](Cc2c[nH]c3ccccc23)NC(=O)[C@H](Cc2cccc(C(N)=O)c2)NC(=O)[C@H](CCSCC(=O)NCCCCCCNC(=O)CN2CCN3CCN4CCN(CC2)CC(=O)[O][Lu]([O]C(=O)C3)[O]C(=O)C4)N(C)C(=O)[C@H](Cc2ccccc2)NC1=O [RB-0003302] (cyclo(F[NMehCys](DOTA(Lu)NH(CH2)6NHCOCH2)[Phe(3-CONH2)][dW]KT)),3.33 to 10
4,C[C@@H](O)[C@@H]1NC(=O)[C@H](CCCCN)NC(=O)[C@@H](Cc2c[nH]c3ccccc23)NC(=O)[C@H](Cc2ccccc2C(N)=O)NC(=O)[C@H](CCSCC(=O)NCCCCCCNC(=O)CN2CCN3CCN4CCN(CC2)CC(=O)[O][Lu]([O]C(=O)C3)[O]C(=O)C4)N(C)C(=O)[C@H](Cc2ccccc2)NC1=O [RB-0003304] (cyclo(F[NMehCys](DOTA(Lu)NH(CH2)6NHCOCH2)[Phe(2-CONH2)][dW]KT)),3.33 to 10
5,C[C@@H](O)[C@@H]1NC(=O)[C@H](CCCCN)NC(=O)[C@@H](Cc2c[nH]c3ccccc23)NC(=O)[C@H](Cc2ccc(O)cc2)NC(=O)[C@H](CCSCC(=O)NCCCCCCNC(=O)CN2CCN3CCN4CCN(CC2)CC(=O)[O][Lu]([O]C(=O)C3)[O]C(=O)C4)N(C)C(=O)[C@H](Cc2cccc(C(N)=O)c2)NC1=O [RB-0003306] (cyclo(KT[Phe(3-CONH2)][NMehCys](DOTA(Lu)NH(CH2)6NHCOCH2)Y[dW])),1 to 3.33
6,C[C@@H](O)[C@@H]1NC(=O)[C@H](CCCCN)NC(=O)[C@@H](Cc2c[nH]c3cc(F)ccc23)NC(=O)[C@H](Cc2ccc(O)cc2)NC(=O)[C@H](CCSCC(=O)NCCCCCCNC(=O)CN2CCN3CCN4CCN(CC2)CC(=O)[O][Lu]([O]C(=O)C3)[O]C(=O)C4)N(C)C(=O)[C@H](Cc2ccccc2)NC1=O [RB-0003309] (cyclo(F[NMehCys](DOTA(Lu)NH(CH2)6NHCOCH2)Y[dTrp(6-F)]KT)),< 1
7,C[C@H](O)[C@@H]1NC(=O)[C@H](CCCCN)NC(=O)[C@@H](Cc2c[nH]c3ccccc23)NC(=O)[C@H](Cc2ccc(O)cc2)NC(=O)[C@H](CCSCC(=O)NCCOCCOCCOCCNC(=O)CN2CCN3CCN4CCN(CC2)CC(=O)[O][Lu]([O]C(=O)C3)[O]C(=O)C4)N(C)C(=O)[C@H](Cc2ccccc2)NC1=O [RB-0003357],< 1
8,C[C@@H](O)[C@@H]1NC(=O)[C@H](CCCCN)NC(=O)[C@@H](Cc2c[nH]c3ccccc23)NC(=O)[C@H](Cc2ccc(O)cc2)NC(=O)[C@H](CCSCCC(=O)NCCCCCCNC(=O)CN2CCN3CCN4CCN(CC2)CC(=O)[O][Lu]([O]C(=O)C3)[O]C(=O)C4)N(C)C(=O)[C@H](Cc2ccccc2)NC1=O [RB-0003374],< 1
9,C[C@@H](O)[C@@H]1NC(=O)[C@H](CCCCN)NC(=O)[C@@H](Cc2c[nH]c3ccccc23)NC(=O)[C@H](Cc2ccc(O)cc2)NC(=O)[C@H](CCSCCC(=O)NCCCCC[C@H](NC(=O)CN2CCN3CCN4CCN(CC2)CC(=O)[O][Lu]([O]C(=O)C3)[O]C(=O)C4)C(=O)O)N(C)C(=O)[C@H](Cc2ccccc2)NC1=O [RB-0003375],1 to 3.33
10,C[C@@H](O)[C@@H]1NC(=O)[C@H](CCCCN)NC(=O)[C@@H]([C@@H](C)c2c[nH]c3ccccc23)NC(=O)[C@H](Cc2ccncc2)NC(=O)[C@H](CCSCC(=O)NCCCCCCNC(=O)CN2CCN3CCN4CCN(CC2)CC(=O)[O][Lu]([O]C(=O)C3)[O]C(=O)C4)N(C)C(=O)[C@H](Cc2ccccc2)NC1=O [RB-0003381] (cyclo([4Pal][dTrp(βS-Me)]KTF[NMehCys](DOTA(Lu)NH(CH2)6NHCOCH2))),< 1
11,C[C@@H](O)[C@@H]1NC(=O)[C@H](CCCCN)NC(=O)[C@@H]([C@@H](C)c2c[nH]c3ccccc23)NC(=O)[C@H](Cc2cccnc2)NC(=O)[C@H](CCSCC(=O)NCCCCCCNC(=O)CN2CCN3CCN4CCN(CC2)CC(=O)[O][Lu]([O]C(=O)C3)[O]C(=O)C4)N(C)C(=O)[C@H](Cc2ccccc2)NC1=O [RB-0003382] (cyclo([3Pal][dTrp(βS-Me)]KTF[NMehCys](DOTA(Lu)NH(CH2)6NHCOCH2))),< 1
12,C[C@H](c1ccccc1)[C@@H]1NC(=O)[C@H](CCSCC(=O)NCCCCCCNC(=O)CN2CCN3CCN4CCN(CC2)CC(=O)[O][Lu]([O]C(=O)C3)[O]C(=O)C4)N(C)C(=O)[C@H](Cc2ccccc2)NC(=O)[C@H]([C@@H](C)O)NC(=O)[C@H](CCCCN)NC(=O)[C@@H]([C@@H](C)c2c[nH]c3ccccc23)NC1=O [RB-0003383] (cyclo(F[NMehCys](DOTA(Lu)NH(CH2)6NHCOCH2)[Phe(3R-Me)][dTrp(βS-Me)]KT)),< 1
13,C[C@@H](O)[C@@H]1NC(=O)[C@H](CCCCN)NC(=O)[C@@H](Cc2c[nH]c3ccccc23)NC(=O)[C@H](Cc2ccncc2)NC(=O)[C@H](CCSCC(=O)NCCCCCCNC(=O)CN2CCN3CCN4CCN(CC2)CC(=O)[O][Lu]([O]C(=O)C3)[O]C(=O)C4)N(C)C(=O)[C@H](Cc2ccncc2)NC1=O [RB-0003443] (cyclo([4Pal][NMehCys](DOTA(Lu)NH(CH2)6NHCOCH2)[4Pal][dW]KT)),10 to 33.3
14,C[C@@H](O)[C@@H]1NC(=O)[C@H](CCCCN)NC(=O)[C@@H](Cc2c[nH]c3ccccc23)NC(=O)[C@H](Cc2ccncc2)NC(=O)[C@H](CCSCC(=O)NCCCCCCNC(=O)CN2CCN3CCN4CCN(CC2)CC(=O)[O][Lu]([O]C(=O)C3)[O]C(=O)C4)N(C)C(=O)[C@H](Cc2cccnc2)NC1=O [RB-0003445] (cyclo([3Pal][NMehCys](DOTA(Lu)NH(CH2)6NHCOCH2)[4Pal][dW]KT)),3.33 to 10

# Same assay, conditions: read-out: SSTR2 Ki
row,SMILES,Ki [nM]
1,C[C@@H](O)[C@@H]1NC(=O)[C@H](CCCCN)NC(=O)[C@@H]([C@@H](C)c2c[nH]c3ccccc23)NC(=O)[C@H](Cc2ccncc2)NC(=O)[C@H](CCSCC(=O)NCCCCCCNC(=O)CN2CCN(CC(=O)O)CCN(CC(=O)O)CCN(CC(=O)O)CC2)N(C)C(=O)[C@H](Cc2cccnc2)NC1=O [RB-0003407] (cyclo([3Pal][NMehCys](X3)[4Pal][dTrp(βS-Me)]KT)),1 to 3.33
2,C[C@H](c1ccccc1)[C@@H]1NC(=O)[C@H]([C@@H](C)O)NC(=O)[C@H](CCCCN)NC(=O)[C@@H]([C@@H](C)c2c[nH]c3ccccc23)NC(=O)[C@H](Cc2ccncc2)NC(=O)[C@H](CCSCC(=O)NCCCCCCNC(=O)CN2CCN(CC(=O)O)CCN(CC(=O)O)CCN(CC(=O)O)CC2)N(C)C1=O [RB-0003408],1 to 3.33
3,C[C@@H](O)[C@@H]1NC(=O)[C@H](CCCCN)NC(=O)[C@@H]([C@@H](C)c2c[nH]c3ccccc23)NC(=O)[C@H](Cc2ccncc2)NC(=O)[C@H](CCSCC(=O)NCCCCCCNC(=O)CN2CCN(CC(=O)O)CCN(CC(=O)O)CCN(CC(=O)O)CC2)N(C)C(=O)[C@H]([C@@H](C)c2ccccc2)NC1=O [RB-0003409],< 1
